Reference: PubChem BioAssay AID602356 (Sanford-Burnham Center for Chemical Genomics, 2012)
pEC50: −log10 of the molar value. Several values for one entry are separate records, joined by “and”; a condition that tells them apart may be missing. Equal values may be shown once. Each block holds one compound with its values, some of them ahead of it. Activity calls are given as the source filed them. The rule behind the calls is not given here.

Target: Neurotensin receptor type 1 (Homo sapiens) (UniProt P30989)
Sequence (P30989 whole entry, looked up): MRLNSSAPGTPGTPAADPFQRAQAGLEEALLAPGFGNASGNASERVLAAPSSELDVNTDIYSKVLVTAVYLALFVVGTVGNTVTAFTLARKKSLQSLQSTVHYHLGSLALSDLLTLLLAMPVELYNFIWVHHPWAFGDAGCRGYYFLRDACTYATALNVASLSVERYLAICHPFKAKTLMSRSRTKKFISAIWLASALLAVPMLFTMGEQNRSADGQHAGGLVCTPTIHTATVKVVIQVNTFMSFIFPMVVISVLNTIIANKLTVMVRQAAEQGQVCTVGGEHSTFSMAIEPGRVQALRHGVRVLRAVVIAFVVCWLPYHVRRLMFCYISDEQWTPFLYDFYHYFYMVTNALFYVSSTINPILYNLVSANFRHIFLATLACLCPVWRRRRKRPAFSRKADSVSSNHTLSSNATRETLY
Assay: neurotensin receptor 1 activation – imaging, image-based, set 3, SAR follow-up (AID 602356)
Conditions: NTR1 image-based agonist assay, cellular imaging

SMILES: COc1cc2nc(C3CC3)nc(N3CCN(C(=O)c4ccccc4)CC3)c2cc1OC
EC50: inactive

SMILES: CC(C)C[C@H](NC(=O)c1cn(-c2ccnc3ccccc23)c(-c2ccccc2)n1)C(=O)O
EC50: > 80 µM (inactive)

SMILES: COc1cc2nc(C(C)C)nc(N3CCN(c4ccccc4OC)CC3)c2cc1OC
pEC50: 5.12

SMILES: Cc1cccc(C)c1-c1nc(C(=O)N[C@@H](CC(C)C)C(=O)O)cn1-c1ccnc2cc(Cl)ccc12
pEC50: 5.03

SMILES: COc1cc2nc(C3CC3)nc(N3CCN(c4ccccc4Cl)CC3)c2cc1OC
pEC50: 4.70

SMILES: COc1ccccc1CN1CCN(c2nc(C3CC3)nc3cc(OC)c(OC)cc23)CC1
EC50: inactive

SMILES: COc1cc2nc(C3CCC3)nc(N3CCN(c4ccccc4[N+](=O)[O-])CC3)c2cc1OC
EC50: inactive

SMILES: COc1cc2nc(C3CC3)nc(N3CCN(C(=O)c4ccccc4OC)CC3)c2cc1OC
EC50: inactive

SMILES: COc1cc2nc(C3CC3)nc(N3CCN(C(=O)OC(C)(C)C)CC3)c2cc1OC
EC50: inactive

SMILES: CC(C)C[C@H](NC(=O)c1cn(-c2ccnc3cc(Cl)ccc23)c(-c2ccccc2)n1)C(=O)O
EC50: inactive

SMILES: COc1cc2nc(CC3CC3)nc(N3CCN(c4ccccc4OC)CC3)c2cc1OC
pEC50: 4.85

SMILES: COc1cccc(OC)c1-c1nc(C(=O)N[C@@H](CC(C)C)C(=O)O)cn1-c1ccnc2ccccc12
pEC50: 5.42

SMILES: CCOc1cc2nc(-c3ccc(OC)c(OC)c3)nc(N3CCN(c4ccccc4)CC3)c2cc1OC
EC50: > 80 µM (inactive)

SMILES: CC(C)C[C@H](NC(=O)c1cn(-c2ccnc3cc(Cl)ccc23)c(-c2c(Cl)cccc2Cl)n1)C(=O)O
pEC50: 5.29

SMILES: CCOc1ccccc1N1CCN(c2nc(C3CC3)nc3cc(OC)c(OC)cc23)CC1
pEC50: 5.22

SMILES: COc1ccccc1-c1cc(C(=O)N[C@@H](CC(C)C)C(=O)O)nn1-c1ccnc2cc(Cl)ccc12
pEC50: 6.02

SMILES: COc1cc2nc(-c3ccccc3)nc(N3CCN(c4ccccc4)CC3)c2cc1OC
EC50: > 80 µM (inactive)

SMILES: COc1cc2nc(C3CC3)nc(N3CCN(S(=O)(=O)c4ccccc4)CC3)c2cc1OC
EC50: > 80 µM (inactive)

SMILES: COc1cc2nc(C3CCC3)nc(N3CCN(c4ccccn4)CC3)c2cc1OC
EC50: inactive

SMILES: COc1cc2nc(C3CCC3)nc(N3CCN(c4ccccc4F)CC3)c2cc1OC
pEC50: 4.75

SMILES: COc1cc2nc(-c3ccccc3)nc(N3CCN(c4ccc(Cl)cc4)CC3)c2cc1OC
EC50: > 80 µM (inactive)

SMILES: COc1cc2nc(CCN3CCN(c4ccccc4OC)CC3)nc(N3CCN(c4ccccc4OC)CC3)c2cc1OC
EC50: inactive

SMILES: COc1cccc(N2CCN(c3nc(C4CCC4)nc4cc(OC)c(OC)cc34)CC2)c1
pEC50: 4.76

SMILES: COc1cccc(OC)c1-c1nc(C(=O)N[C@H](CC(C)C)C(=O)O)cn1-c1ccnc2cc(Cl)ccc12
pEC50: 5.03

SMILES: COc1cccc(OC)c1-c1nc(C(=O)N[C@@H](CC(C)C)C(=O)O)cn1-c1cccc2ccccc12
pEC50: 5.64 and 5.35

SMILES: COc1cc2nc(C3CC3)nc(N3CCNCC3)c2cc1OC
EC50: > 80 µM (inactive)

SMILES: COc1cc2nc(C3CC3)nc(N3CCN(c4ccccc4OC)CC3)c2cc1OC
pEC50: 5.66 and 5.72

SMILES: COc1cccc(OC)c1-c1nc(C(=O)N[C@@H](CC(C)C)C(=O)O)cn1-c1ccncc1
EC50: inactive

SMILES: COc1ccc(N2CCN(c3nc(C4CCC4)nc4cc(OC)c(OC)cc34)CC2)cc1
EC50: inactive

SMILES: COc1cc2ncnc(N3CCN(c4ccccc4OC)CC3)c2cc1OC
EC50: > 80 µM (inactive)

SMILES: CCOc1cc2c(N3CCN(c4ccccc4OC)CC3)nc(-c3ccc(OC)c(OC)c3)nc2cc1OC
EC50: > 80 µM (inactive)

SMILES: COc1ccccc1-c1nc(C(=O)N[C@@H](CC(C)C)C(=O)O)cn1-c1ccncc1
EC50: > 80 µM (inactive)

SMILES: COc1cccc(OC)c1-c1nc(C(=O)N[C@@H](CC(C)C)C(=O)O)cn1-c1ccc(C)cc1
EC50: > 80 µM (inactive)

SMILES: COc1cccc(OC)c1-c1nc(C(=O)NC2(C(=O)O)C3CC4CC(C3)CC2C4)cn1-c1ccnc2cc(Cl)ccc12 (stereo not given)
EC50: inactive

SMILES: COc1cccc(OC)c1-c1cc(C(=O)N[C@@H](CC(C)C)C(=O)OC(C)(C)C)nn1-c1ccnc2cc(Cl)ccc12
pEC50: 5.87

SMILES: COc1cccc(OC)c1-c1cc(C(=O)N[C@@H](CC(C)C)C(=O)O)nn1-c1ccnc2cc(Cl)ccc12
pEC50: 6.63

SMILES: COc1cc2nc(-c3ccccc3)nc(N3CCN(c4ccc(F)cc4)CC3)c2cc1OC
EC50: > 80 µM (inactive)

SMILES: COc1cccc(OC)c1-c1cc(C(=O)NC2(C(=O)O)C3CC4CC(C3)CC2C4)nn1-c1ccc(C(=O)N(C)CCCN(C)C)cc1C(C)C (stereo not given)
EC50: > 80 µM (inactive)

Second part, the compound after the results:

pEC50: 4.89
SMILES: CCOc1ccc(-c2nnc3c4cc(OC)c(OC)cc4n(Cc4ccc(C)cc4)cc2-3)cc1

pEC50: 4.91
SMILES: COc1cc2c3nnc(-c4ccc(F)cc4)c-3cn(Cc3ccc(OC(F)(F)F)cc3)c2cc1OC

pEC50: 4.78
SMILES: COc1cc2c3nnc(-c4ccccc4)c-3cn(Cc3ccc(F)cc3)c2cc1OC

pEC50: 5.53
SMILES: COc1cc2c3nnc(-c4ccc(Cl)cc4)c-3cn(Cc3ccc(F)cc3)c2cc1OC

EC50: > 80 µM (inactive)
SMILES: CCn1cc2c(-c3ccc(OC)cc3)nnc-2c2ccccc21

pEC50: 5.17
SMILES: COc1cc2c3nnc(-c4ccc(C)cc4)c-3cn(Cc3ccc(C)cc3)c2cc1OC

pEC50: 4.95
SMILES: COc1ccc2c3nnc(-c4ccc(C)cc4)c-3cn(Cc3ccc(C)cc3)c2c1

EC50: inactive
SMILES: COc1cc2c3nnc(-c4ccc(F)cc4)c-3cn(Cc3ccccn3)c2cc1OC

pEC50: 5.21
SMILES: COc1cc2c3nnc(-c4ccc(C)c(C)c4)c-3cn(Cc3ccccc3)c2cc1OC

EC50: > 80 µM (inactive)
SMILES: COc1cc2c3nnc(-c4ccccc4)c-3cn(Cc3ccc(C)cc3)c2cc1OC

EC50: inactive
SMILES: COc1ccc(-c2nnc3c4ccccc4n(Cc4ccc(F)cc4)cc2-3)cc1

pEC50: 4.86
SMILES: COc1ccc2c(c1)c1nnc(-c3ccc(F)cc3)c-1cn2Cc1ccc(F)cc1

pEC50: 4.80
SMILES: COc1ccc2c3nnc(-c4ccc(C)cc4)c-3cn(Cc3ccccc3)c2c1

pEC50: 5.05
SMILES: CCOc1ccc(-c2nnc3c4cc(OC)c(OC)cc4n(Cc4ccccc4)cc2-3)cc1

pEC50: 5.09
SMILES: CCOc1ccc(-c2nnc3c4cc(OC)c(OC)cc4n(Cc4ccc(F)cc4)cc2-3)cc1

EC50: > 80 µM (inactive)
SMILES: COc1cc2ncc3c(-c4ccc(F)cc4)n[nH]c3c2cc1OC

EC50: > 80 µM (inactive)
SMILES: COc1cc2c3nnc(-c4ccc(F)cc4)c-3cn(Cc3cccc(N(C)C)c3)c2cc1OC

pEC50: 5.24
SMILES: COc1cc2c3nnc(-c4ccc(F)cc4)c-3cn(Cc3ccc(C)cc3C)c2cc1OC

EC50: > 80 µM (inactive)
SMILES: COc1cc2c3nnc(-c4ccc(F)cc4)c-3cn(Cc3cccnc3)c2cc1OC

pEC50: 5.31
SMILES: COc1cc2c3nnc(-c4ccc(C)c(C)c4)c-3cn(Cc3ccc(C)cc3)c2cc1OC

EC50: inactive
SMILES: COc1cc2c3nnc(-c4ccc(F)cc4)c-3cn(CCc3ccccc3)c2cc1OC

EC50: inactive
SMILES: Cc1ccc(-c2nnc3c4cc5c(cc4n(Cc4ccccc4)cc2-3)OCO5)cc1

EC50: > 80 µM (inactive)
SMILES: COc1ccc(-c2nnc3c4ccccc4n(Cc4ccc(C)cc4)cc2-3)cc1

pEC50: 5.14 and 5.13
SMILES: COc1cc2c3nnc(-c4ccc(F)cc4)c-3cn(Cc3ccccc3)c2cc1OC

pEC50: 4.79
SMILES: Cc1ccc(Cn2cc3c(-c4ccc(C)c(C)c4)nnc-3c3cc4c(cc32)OCO4)cc1

pEC50: 4.95
SMILES: COc1ccc2c3nnc(-c4ccc(C)cc4)c-3cn(Cc3ccc(F)cc3)c2c1

EC50: inactive
SMILES: COc1cc2nc(C3CC3)nc(N3CCN(Cc4ccc(C)cc4)CC3)c2cc1OC

pEC50: 4.79
SMILES: COc1cc2c3nnc(-c4ccc(C)c(C)c4)c-3cn(Cc3ccc(F)cc3)c2cc1OC

EC50: inactive
SMILES: COc1ccc(-c2nnc3c4ccccc4n(CCc4ccccc4)cc2-3)cc1

EC50: > 80 µM (inactive)
SMILES: COc1ccc(Cn2cc3c(-c4ccc(OC)cc4)nnc-3c3ccccc32)cc1

pEC50: 5.04
SMILES: CCc1ccc(-c2nnc3c4cc(OC)c(OC)cc4n(Cc4ccc(F)cc4)cc2-3)cc1

pEC50: 5.04
SMILES: Fc1ccc(Cn2cc3c(-c4ccc(Cl)cc4)nnc-3c3cc4c(cc32)OCO4)cc1
